Consider twelve molecules from patent US20260306459A1, “INHIBITORS OF NSUN1- AND NSUN2-MEDIATED ACTIVE STRUCTURES” (THE UNIVERSITY OF CHICAGO, priority 2023, published 2026).

The test system of one test is H82 cells. Description: MTT growth inhibition in venetoclax-resistant lung cancer cell line H82. In kind it is cell-based, human. The note with it: H82, venetoclax-resistant human lung cancer, wrapped cell. From the text: (§1) FIGS. 8A-8B display a schematic of an 5-ethynyl uridine click chemistry (EC)-coupled flow cytometry (EC-FCM) assay (FIG. 8A), while FIG. 8B depicts the results of an EC-FCM assay showing distinct drug-specific signatures/patterns of nascent RNA synthesis inhibition in the venetoclax sensitive leukemia cell line (K1). The MTT assay measures cell viability and proliferation as well as cytotoxicity of compounds by assessing cellular metabolic activity. The associated measurement can be described as cell viability, cell killing, and/or growth inhibition.
(§2) FIGS. 11A-11D display scatter plot representations of screening results for AI-designed NSUN1-targeting compound libraries in a venetcoclax-resistant human myeloid leukemia cell line (SC), lung cancer cell line (H82), and venetoclax resistant human […], and a schematic representation of categorization of the results. A human myeloid leukemia cell Line (SC), a lung cancer cell line (H82 or K562) were both incubated at drug concentration 10 μM/μL overnight. MTT assays were performed after 24 hours, and changes were calculated as the percentage of mean absorbance (n=3) versus mean absorbance of drug-free control (n=3). Negative outliers indicated in red ovals. FIG. 11A depicts the results of an NSUN1-targeting drug library, 74 drugs, comparing growth/inhibition in H-82 (Y axis) and SC (X axis) cell lines. FIG. 11B depicts the results of an NSUN2-targeting drug library, 102 drugs, comparing growth/inhibition in H-82 (Y axis) and SC (X axis) cell lines. FIG. 11C depicts the results of an NSUN1-targeting drug library, 74 drugs, comparing growth/inhibition in K562 (Y axis) and SC (X axis) cell lines. FIG. 11D is a schematic representation showing categorization of the results from screens performed as described in FIG. 11, and validation experiments as described in FIG. 12.
FIGS. 12A-12J display bar graphs displaying the results of validation experiments for small molecule inhibitors of NSUN1/2-ACS interactions as identified herein. Drug validation of select SC, H82, and/or K562 inhibiting compounds in mouse acute myeloid leukemia cell Line (C1498), SC cells, H82 cells, and/or K562 cells. NSUN1-17 and/or venetoclax acted as controls. Inhibition of cell vitality was identified as dose-dependent for certain small molecules, not merely cytotoxic. In brief, stock with concentration 0.4×10^6 test (e.g., SC, H82, K562, or C1498, as labelled) cells/mL, and 10 μM/μL drug was serially diluted into drug-free cell stock to reach concentrations of 1 μM/μL and […] and split into 100 μL volumes in a 96-well plate. MTT assays performed after 24 hour incubation. Percentages calculated as a difference in mean absorbance of each drug triplicate and mean absorbance in drug-free cell triplicate. […]

Test [1] concerns leukemia and lung cancer cell lines. Description: Functional (MTT) screening of NSUN1/2-targeting libraries in leukemia and lung cancer cell lines. In kind it is cell-based, human. As to conditions: for Bioactive positive hit, tumor cell growth inhibition and lineage preference: leukemia and lung cancer cell lines; for Efficacy of tumor cell growth inhibition: multiple leukemia lines and/or lung cancer cell lines. How it is done:
as §2
(§3) FIGS. 12A-12J display bar graphs displaying the results of validation experiments for small molecule inhibitors of NSUN1/2-ACS interactions as identified herein. Drug validation of select SC, H82, and/or K562 inhibiting compounds in mouse acute myeloid leukemia cell Line (C1498), SC cells, H82 cells, and/or K562 cells. NSUN1-17 and/or venetoclax acted as controls. Inhibition of cell vitality was identified as dose-dependent for certain small molecules, not merely cytotoxic. In brief, stock with concentration 0.4×10^6 test (e.g., SC, H82, K562, or C1498, as labelled) cells/mL, and 10 μM/μL drug was serially diluted into drug-free cell stock to reach concentrations of 1 μM/μL and […] and split into 100 μL volumes in a 96-well plate. MTT assays performed after 24 hour incubation. Percentages calculated as a difference in mean absorbance of each drug triplicate and mean absorbance in drug-free cell triplicate. Red bars represent standard errors. The concentration of drug represented by each column is from left to right as written in the figure keys. FIGS. 12A-12E provide results from independent repeats for different groupings of small molecules tested against C1498 cells. FIGS. 12F-12G provide results from independent repeats for different groupings of small molecules tested against H82 cells. FIGS. […] provide results from independent repeats for different groupings of small molecules tested against SC cells. FIG. 12J provide results from an assay against K562 cells.
The inventors then designed a protocol for functional screening of NSUN1/2-targeting supercomputing/AI-derived compound libraries as schematically presented in FIGS. 5A-5G. Briefly, the library compounds were obtained from various chemical companies/vendors and dissolved in DMSO, and then applied to 96-well plates that contained leukemia and/or other cancer cells that were resistant to venetoclax. Both the routine colorimetric assay (MTT assay) and the newly developed NSUN1/2-targeting fluorescence quenching and release (FQR) assay were performed to select bioactive compounds for further quantitative study to confirm that they targetNSUN1/2 and their associated ACS. As described below, the compound libraries screened through cancer cell proliferation and/or NSUN1/2 localization to the ACS successfully identified numerous promising compounds that can inhibit the leukemia cell growth and appear to target the NSUN1-mediated ACS (see Table 2). This success has proven the feasibility and efficacy of the described supercomputing/AI design and functional screening of the NSUN1/2-targeting drug libraries. In some aspects, screening is conducted using drug-resistant cell lines. […]

A further test concerns SC cells. Description: MTT growth inhibition in venetoclax-resistant monocytic leukemia cell line SC. In kind it is cell-based, human. As to conditions: for Effective cell lines: SC: venetoclax-resistant human monocytic leukemia, wrapped cell.
Excerpt: as §1, §2, §3
The inventors then designed a protocol for functional screening of NSUN1/2-targeting supercomputing/AI-derived compound libraries as schematically presented in FIGS. 5A-5G. Briefly, the library compounds were obtained from various chemical companies/vendors and dissolved in DMSO, and then applied to 96-well plates that contained leukemia and/or other cancer cells that were resistant to venetoclax. […]

The subject of another test is C1498 cells. The experiment in a line: MTT growth inhibition in myeloid leukemia cell line C1498. In kind it is cell-based, mouse. As to conditions: C1498, mouse myeloid leukemia, wrapped cell.
Excerpt: as §1, §3
The inventors then designed a protocol for functional screening of NSUN1/2-targeting supercomputing/AI-derived compound libraries as schematically presented in FIGS. 5A-5G. Briefly, the library compounds were obtained from various chemical companies/vendors and dissolved in DMSO, and then applied to 96-well plates that contained leukemia and/or other cancer cells that were resistant to venetoclax. Both the routine colorimetric assay (MTT assay) and the newly developed NSUN1/2-targeting fluorescence quenching and release (FQR) assay were performed to select bioactive compounds for further quantitative study to confirm that they targetNSUN1/2 and their associated ACS. As described below, the compound libraries screened through cancer cell proliferation and/or NSUN1/2 localization to the ACS successfully identified numerous promising compounds that can inhibit the leukemia cell growth and appear to target the NSUN1-mediated ACS (see Table 2). This success has proven the feasibility and efficacy of the described supercomputing/AI design and functional screening of the NSUN1/2-targeting drug libraries. In some aspects, screening is conducted using drug-resistant cell lines. In some aspects, screening is conducted using drug-sensitive cell lines. In some aspects, screening is conducted in leukemia cell lines. In some aspects, screening is conducted in other cancer cell lines besides leukemia (e.g., lung cancer cell lines). In some aspects, NSUN1/2-ACS inhibitors identified are verified in additional cell lines and/or animal models (see e.g., Tables 4-6).

“Also recorded” adds a separate entry of the source.

On to `NC1(C(=O)NC(CCO)c2ccc(Cl)cc2)CCN(c2ncnc3[nH]ccc23)CC1` (stereo not drawn) [NSUN1-9], for which the “Effective cell lines: H82” value in the test with H82 cells is given as “SC & C1498 >”. Also, the “Bioactive positive hit, tumor cell growth inhibition and lineage preference” value in test [1] is reported as “inhibits tumor cell growth in a leukemia preferential manner”. Besides, the “Effective cell lines: SC” value in the test with SC cells was “SC & C1498 >”. Besides, the “Effective cell lines: C1498” value in the test on C1498 cells is “SC & C1498 >”.

In the case of `CC(C)C[C@H](NC(=O)[C@@H](O)[C@H](N)Cc1ccccc1)C(=O)O` [NSUN1-10, Bestatin or Ubenimex, reference compound], the “Bioactive positive hit, tumor cell growth inhibition and lineage preference” value in test [1] is “inhibits tumor cell growth in a leukemia preferential manner”.

With `Nc1ncccc1-c1cc(Cc2ccc(COc3ccccn3)cc2)no1` [NSUN1-11], the “Bioactive positive hit, tumor cell growth inhibition and lineage preference” value in test [1] is “inhibits tumor cell growth in a non-lineage specific manner”. Also, the “Inhibition of growth of venetoclax-resistant leukemia (SC) cells” value with SC cells is “inhibition of the growth of venetoclax-resistant SC cells; also recorded: inhibit drug (venetoclax)-resistant leukemia cells”.

Consider `C=CC(=O)Nc1cccc(-c2cccc3cnc(Nc4ccc(N5CCN(CCO)CC5)c(F)c4F)nc23)c1` [NSUN1-14], for which, in test [1], the “Efficacy of tumor cell growth inhibition” value is listed as “high-efficacy of tumor cell growth inhibition”.

For `CC(C)Cc1nc(NC(=O)c2cc(-c3ccc4c(c3)CCO4)n[nH]2)n[nH]1` [NSUN1-17.16], the “Bioactive positive hit, tumor cell growth inhibition and lineage preference” value in test [1] is given as “inhibits tumor cell growth in a non-lineage specific manner”.

On to `NC1(Cc2ccc(Cl)cc2)CCN(c2ncnc3[nH]ccc23)CC1` [NSUN1-19], for which the “Effective cell lines: H82” value in the test on H82 cells is “H82 > SC &”. In addition, the “Bioactive positive hit, tumor cell growth inhibition and lineage preference” value in test [1] is “inhibits tumor cell growth in a lung cancer preferential manner”. For the same molecule, the “Effective cell lines: SC” value in the test on SC cells is reported as “H82 > SC &”. The “Effective cell lines: C1498” value in the test on C1498 cells was “H82 > SC &”.

Consider `Nc1nc(Cn2c(=O)oc3ccccc32)nc(Nc2ccccc2)n1` [NSUN1-22], for which the “Bioactive positive hit, tumor cell growth inhibition and lineage preference” value in test [1] is recorded as “inhibits tumor cell growth in a lung cancer preferential manner”. Also, the “Effective cell lines: C1498” value in the test on C1498 cells is on record as “C1498 (weakly)”.

Take `Oc1nc(Nc2ccc(Cl)cc2)nc2nccc(-c3ccncc3)c12` [NSUN1-67]: the “Bioactive positive hit, tumor cell growth inhibition and lineage preference” value in test [1] is “inhibits tumor cell growth in a non-lineage specific manner”.

For the molecule `Cc1[nH]nc2ccc(-c3cncc(OCC(N)Cc4ccccc4)c3)cc12` (stereo not drawn) [NSUN1-73], the “Efficacy of tumor cell growth inhibition” value in test [1] is recorded as “high-efficacy of tumor cell growth inhibition”.

Regarding `O=C(Nc1cccc(-c2nnc3n2CCCC3)c1)c1cc(-c2ccccc2)n[nH]1` [NSUN1-74], in test [1], the “Bioactive positive hit, tumor cell growth inhibition and lineage preference” value was “inhibits tumor cell growth in a non-lineage specific manner”. In addition, the “Effective cell lines: C1498” value in the test on C1498 cells is recorded as “C1498 (weakly)”.

Regarding `O=c1ccc2ccc(OCN3CCN(c4cccc5sccc45)CC3)cc2[nH]1` [NSUN2-35, reference compound], in test [1], the “Bioactive positive hit, tumor cell growth inhibition and lineage preference” value is listed as “inhibits tumor cell growth in a lung cancer preferential manner”.

For the molecule `O=C(Nc1ccc(CN2CCCCC2)cc1)c1cccc(COc2ccc(Br)cc2)c1` [NSUN2-37], the “Effective cell lines: H82” value with H82 cells is given as “H82 & SC >”. Also, the “Bioactive positive hit, tumor cell growth inhibition and lineage preference” value in test [1] is recorded as “inhibits tumor cell growth in a non-lineage specific manner”. For the same molecule, in the test with SC cells, the “Effective cell lines: SC” value is recorded as “H82 & SC >”. In the test on C1498 cells, the “Effective cell lines: C1498” value is given as “H82 & SC >”.
